{
  "source": "paper PMC9629815",
  "about": "“MK256 is a novel CDK8 inhibitor with potent antitumor activity in AML through downregulation of the STAT pathway” (Oncotarget, 2022)",
  "key": {"CYP2D6": {"biological_target": "CYP2D6 (Homo sapiens, UniProt P10635)", "assay": "Cytochrome P450 inhibition assay", "format": "in vitro ADME", "settings": "50 uM"}, "[1]": {"assay": "Hepatocyte stability assay", "format": "in vitro ADME, Human", "experimental": "Human LiverPoolTM 20-donor, dog and mouse cryopreserved hepatocytes were obtained from BioreclamationIVT. Cryopreserved hepatocytes were removed from the liquid nitrogen tank and thawed in a 37°C water bath. As soon as the cells pulled away from the vial wall, they were decanted into 48 ml of warm HT medium. Cells were centrifuged for four minutes at 420 rpm (50 g). After the supernatant was removed, the pellet was re-suspended in warm DMEM medium. Cell density was counted by a hemacytometer. The assay was carried out in 96-well microtiter plates. MK256 was incubated for 0, 60, 120, and 180 minutes at 37°C with hepatocytes. Reaction mixtures (50 μL) contained a final concentration of 1 μM MK256, 0.5 million cells/mL hepatocytes in the DMEM medium. At each time point (for example, 0, 1, 2, and 3 hrs), 200 μL of quench solution (100% acetonitrile with 0.1% formic acid) with internal standard were transferred to each well. […] All samples were analyzed on LC/MS/MS using an AB Sciex API 4000 instrument, coupled to a Shimadzu LC-20AD LC Pump system. […] The extent of metabolism was calculated as the disappearance of the test compound, compared to the 0-min control reaction incubations. Initial rates were calculated for the compound concentration and used to determine t1/2 values and subsequently, the intrinsic clearance, CLint = (0.693)(1/t1/2 (min))(mL incubation/million cells)."}, "CDK14 (PFTK1)/cyclin Y": {"biological_target": "CDK14 (PFTK1)/cyclin Y (Homo sapiens, UniProt O94921)", "sequence (O94921 whole entry)": "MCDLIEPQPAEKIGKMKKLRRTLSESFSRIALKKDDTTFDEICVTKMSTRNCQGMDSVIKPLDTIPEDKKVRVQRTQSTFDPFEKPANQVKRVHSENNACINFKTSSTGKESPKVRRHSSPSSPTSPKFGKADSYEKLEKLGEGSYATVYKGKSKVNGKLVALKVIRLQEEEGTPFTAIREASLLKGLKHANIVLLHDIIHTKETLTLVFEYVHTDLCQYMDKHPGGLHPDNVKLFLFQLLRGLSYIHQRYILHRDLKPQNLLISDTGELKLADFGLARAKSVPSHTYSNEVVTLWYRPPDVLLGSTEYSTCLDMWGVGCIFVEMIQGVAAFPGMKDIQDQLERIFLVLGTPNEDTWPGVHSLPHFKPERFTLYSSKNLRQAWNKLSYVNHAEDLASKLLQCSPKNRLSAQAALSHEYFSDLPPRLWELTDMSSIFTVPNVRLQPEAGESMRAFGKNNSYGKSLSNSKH", "sequence (Q8ND76 whole entry partner)": "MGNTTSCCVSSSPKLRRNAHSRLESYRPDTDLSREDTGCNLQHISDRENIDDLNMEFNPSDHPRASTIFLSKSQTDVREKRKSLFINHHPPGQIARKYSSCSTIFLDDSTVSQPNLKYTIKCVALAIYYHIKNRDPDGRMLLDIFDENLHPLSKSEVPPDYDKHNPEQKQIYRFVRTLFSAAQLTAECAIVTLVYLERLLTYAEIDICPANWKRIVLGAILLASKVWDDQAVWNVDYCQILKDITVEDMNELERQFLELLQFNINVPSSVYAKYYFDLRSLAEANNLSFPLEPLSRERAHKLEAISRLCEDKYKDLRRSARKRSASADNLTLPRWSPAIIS", "assay": "CDK panel kinase inhibition", "format": "biochemical", "settings": "read-out: Percentage of inhibition (%)", "excerpt": "(§1) MK256 was synthesized in house. The kinase profiling of MK256 against various targets was done using the SelectScreen Kinase Profiling Services provided by ThermoFisher Scientific (Walham WA, USA). https://www.thermofisher.com/us/en/home/products-and-services/services/custom-services/screening-and-profiling-services/selectscreen-profiling-service/selectscreen-kinase-profiling-service.html."}, "CDK18/cyclin Y": {"biological_target": "CDK18/cyclin Y (Homo sapiens, UniProt Q07002)", "sequence (Q07002 whole entry)": "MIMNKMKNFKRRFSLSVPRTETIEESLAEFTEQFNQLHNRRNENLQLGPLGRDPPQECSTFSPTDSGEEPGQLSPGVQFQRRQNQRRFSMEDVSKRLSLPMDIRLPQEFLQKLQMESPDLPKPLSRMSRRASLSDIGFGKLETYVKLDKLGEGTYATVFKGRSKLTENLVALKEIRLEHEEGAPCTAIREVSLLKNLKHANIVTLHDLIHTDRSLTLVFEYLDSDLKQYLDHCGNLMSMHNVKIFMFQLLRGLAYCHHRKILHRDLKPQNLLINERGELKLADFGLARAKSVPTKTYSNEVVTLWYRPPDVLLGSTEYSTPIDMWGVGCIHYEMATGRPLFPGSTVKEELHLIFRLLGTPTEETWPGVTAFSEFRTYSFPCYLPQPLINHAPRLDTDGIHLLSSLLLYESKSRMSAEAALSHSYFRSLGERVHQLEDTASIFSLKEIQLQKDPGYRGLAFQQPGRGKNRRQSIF", "sequence (Q8ND76 whole entry partner)": "as the sequence (Q8ND76 whole entry partner) above", "assay": "CDK panel kinase inhibition", "format": "biochemical", "settings": "read-out: Percentage of inhibition (%)", "excerpt": "as §1"}, "CDK9/cyclin T1": {"biological_target": "CDK9/cyclin T1 (Homo sapiens, UniProt P50750)", "assay": "CDK panel kinase inhibition", "format": "biochemical", "settings": "read-out: Percentage of inhibition (%)", "excerpt": "as §1"}, "CDK6/cyclin D1": {"biological_target": "CDK6/cyclin D1 (Homo sapiens, UniProt Q00534)", "sequence (Q00534 whole entry)": "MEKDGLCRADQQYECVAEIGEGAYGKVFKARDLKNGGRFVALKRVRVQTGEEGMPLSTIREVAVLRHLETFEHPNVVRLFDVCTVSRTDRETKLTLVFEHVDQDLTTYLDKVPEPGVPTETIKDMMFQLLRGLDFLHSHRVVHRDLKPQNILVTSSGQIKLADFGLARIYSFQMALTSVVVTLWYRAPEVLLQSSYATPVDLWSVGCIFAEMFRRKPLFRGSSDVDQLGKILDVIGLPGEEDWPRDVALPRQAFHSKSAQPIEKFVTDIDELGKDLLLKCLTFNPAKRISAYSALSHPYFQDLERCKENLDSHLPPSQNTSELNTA", "sequence (P24385 whole entry partner)": "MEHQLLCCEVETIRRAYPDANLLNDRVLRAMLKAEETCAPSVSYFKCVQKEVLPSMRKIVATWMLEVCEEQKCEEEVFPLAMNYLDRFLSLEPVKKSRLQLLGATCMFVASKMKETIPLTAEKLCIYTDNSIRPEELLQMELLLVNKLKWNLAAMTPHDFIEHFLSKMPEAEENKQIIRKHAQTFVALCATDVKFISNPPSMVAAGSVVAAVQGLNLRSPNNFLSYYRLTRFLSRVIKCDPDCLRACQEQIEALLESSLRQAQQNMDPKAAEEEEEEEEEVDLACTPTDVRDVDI", "assay": "CDK panel kinase inhibition", "format": "biochemical", "settings": "read-out: Percentage of inhibition (%)", "excerpt": "as §1"}, "CDK1/cyclin B": {"biological_target": "CDK1/cyclin B (Homo sapiens, UniProt P06493)", "sequence (P06493 whole entry)": "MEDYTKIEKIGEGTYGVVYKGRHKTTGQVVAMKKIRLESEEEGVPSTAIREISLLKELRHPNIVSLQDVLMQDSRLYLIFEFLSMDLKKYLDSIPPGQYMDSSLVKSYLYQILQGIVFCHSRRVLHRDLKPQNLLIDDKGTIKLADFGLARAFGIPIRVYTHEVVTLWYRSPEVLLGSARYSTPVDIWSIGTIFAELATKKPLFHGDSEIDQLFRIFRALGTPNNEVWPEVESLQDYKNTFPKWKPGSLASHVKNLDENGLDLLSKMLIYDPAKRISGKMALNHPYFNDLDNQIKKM", "sequence (P14635 whole entry partner)": "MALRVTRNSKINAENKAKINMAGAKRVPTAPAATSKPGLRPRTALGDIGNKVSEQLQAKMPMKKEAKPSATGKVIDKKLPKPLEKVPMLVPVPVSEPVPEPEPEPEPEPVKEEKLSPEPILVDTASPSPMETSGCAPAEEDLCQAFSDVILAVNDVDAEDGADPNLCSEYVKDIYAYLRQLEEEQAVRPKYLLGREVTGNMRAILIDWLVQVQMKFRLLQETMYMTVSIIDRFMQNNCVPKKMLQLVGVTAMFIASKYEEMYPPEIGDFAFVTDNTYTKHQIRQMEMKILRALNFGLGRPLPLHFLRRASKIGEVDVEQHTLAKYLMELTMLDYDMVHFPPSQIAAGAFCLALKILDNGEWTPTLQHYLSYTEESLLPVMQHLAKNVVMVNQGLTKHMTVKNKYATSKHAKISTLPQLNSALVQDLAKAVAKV", "assay": "CDK panel kinase inhibition", "format": "biochemical", "settings": "read-out: Percentage of inhibition (%)", "excerpt": "as §1"}, "CDK2/cyclin E1": {"biological_target": "CDK2/cyclin E1 (Homo sapiens, UniProt P24941)", "assay": "CDK panel kinase inhibition", "format": "biochemical", "settings": "read-out: Percentage of inhibition (%)", "excerpt": "as §1"}, "CDK2/cyclin A": {"biological_target": "CDK2/cyclin A (Homo sapiens, UniProt P24941)", "assay": "CDK panel kinase inhibition", "format": "biochemical", "settings": "read-out: Percentage of inhibition (%)", "excerpt": "as §1"}, "CDK7/cyclin H/MNAT1": {"biological_target": "CDK7/cyclin H/MNAT1 (Homo sapiens, UniProt P50613)", "sequence (P50613 whole entry)": "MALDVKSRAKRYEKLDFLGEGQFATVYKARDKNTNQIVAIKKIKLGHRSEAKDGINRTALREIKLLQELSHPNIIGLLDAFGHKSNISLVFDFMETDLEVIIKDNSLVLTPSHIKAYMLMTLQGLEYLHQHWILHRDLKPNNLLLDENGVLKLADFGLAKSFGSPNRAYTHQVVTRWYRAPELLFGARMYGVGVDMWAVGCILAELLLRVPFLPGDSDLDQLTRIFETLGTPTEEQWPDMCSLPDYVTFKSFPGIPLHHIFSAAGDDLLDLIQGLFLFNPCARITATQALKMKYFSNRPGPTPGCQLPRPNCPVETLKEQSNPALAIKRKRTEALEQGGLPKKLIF", "sequence (P51946 whole entry partner)": "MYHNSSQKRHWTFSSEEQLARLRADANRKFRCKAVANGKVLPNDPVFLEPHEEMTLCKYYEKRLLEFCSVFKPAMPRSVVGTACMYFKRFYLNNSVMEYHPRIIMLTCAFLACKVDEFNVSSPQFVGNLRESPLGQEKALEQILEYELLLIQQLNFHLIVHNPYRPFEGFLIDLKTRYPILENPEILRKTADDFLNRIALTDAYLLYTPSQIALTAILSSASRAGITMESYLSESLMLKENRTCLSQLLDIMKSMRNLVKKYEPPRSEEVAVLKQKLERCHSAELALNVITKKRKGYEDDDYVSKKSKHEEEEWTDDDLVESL", "sequence (P51948 whole entry partner)": "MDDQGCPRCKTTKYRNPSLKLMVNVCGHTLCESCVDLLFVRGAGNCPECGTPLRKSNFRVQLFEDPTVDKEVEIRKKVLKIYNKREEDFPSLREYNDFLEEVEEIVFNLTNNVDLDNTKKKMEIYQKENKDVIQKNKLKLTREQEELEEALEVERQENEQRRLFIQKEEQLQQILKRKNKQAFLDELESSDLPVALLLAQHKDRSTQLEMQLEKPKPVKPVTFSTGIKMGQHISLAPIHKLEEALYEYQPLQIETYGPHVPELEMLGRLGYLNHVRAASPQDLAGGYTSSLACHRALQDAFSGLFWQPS", "assay": "CDK panel kinase inhibition", "format": "biochemical", "settings": "read-out: Percentage of inhibition (%)", "excerpt": "as §1"}, "CDK5/p35": {"biological_target": "CDK5/p35 (Homo sapiens, UniProt Q00535)", "sequence (Q00535 whole entry)": "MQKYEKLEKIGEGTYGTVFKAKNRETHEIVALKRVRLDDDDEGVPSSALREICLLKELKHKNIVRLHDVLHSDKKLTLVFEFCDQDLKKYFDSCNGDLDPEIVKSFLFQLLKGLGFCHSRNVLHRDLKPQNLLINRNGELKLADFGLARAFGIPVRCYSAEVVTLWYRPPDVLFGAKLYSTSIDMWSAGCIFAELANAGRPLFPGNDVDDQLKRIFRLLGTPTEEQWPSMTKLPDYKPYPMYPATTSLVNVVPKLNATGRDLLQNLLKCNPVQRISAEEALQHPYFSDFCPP", "sequence (Q15078 2-307 partner limits assumed)": "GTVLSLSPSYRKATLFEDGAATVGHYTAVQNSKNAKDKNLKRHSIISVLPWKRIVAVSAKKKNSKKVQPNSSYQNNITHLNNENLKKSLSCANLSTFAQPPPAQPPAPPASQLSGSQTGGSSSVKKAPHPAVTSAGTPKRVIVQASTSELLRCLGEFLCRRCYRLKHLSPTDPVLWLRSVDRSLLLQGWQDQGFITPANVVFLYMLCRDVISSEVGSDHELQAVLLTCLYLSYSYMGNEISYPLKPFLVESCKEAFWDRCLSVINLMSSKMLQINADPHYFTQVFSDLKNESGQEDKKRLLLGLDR", "assay": "CDK panel kinase inhibition", "format": "biochemical", "settings": "read-out: Percentage of inhibition (%)", "excerpt": "as §1"}, "CDK4/cyclin D3": {"biological_target": "CDK4/cyclin D3 (Homo sapiens, UniProt P11802)", "sequence (P11802 whole entry)": "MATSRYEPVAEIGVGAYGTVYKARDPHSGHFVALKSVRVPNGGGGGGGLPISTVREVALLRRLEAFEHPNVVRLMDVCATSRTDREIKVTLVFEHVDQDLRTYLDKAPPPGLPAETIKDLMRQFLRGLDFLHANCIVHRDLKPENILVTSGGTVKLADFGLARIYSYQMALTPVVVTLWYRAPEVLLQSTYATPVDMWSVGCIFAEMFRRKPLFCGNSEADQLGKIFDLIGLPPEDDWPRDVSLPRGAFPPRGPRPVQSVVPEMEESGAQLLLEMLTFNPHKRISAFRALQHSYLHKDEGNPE", "sequence (P30281 whole entry partner)": "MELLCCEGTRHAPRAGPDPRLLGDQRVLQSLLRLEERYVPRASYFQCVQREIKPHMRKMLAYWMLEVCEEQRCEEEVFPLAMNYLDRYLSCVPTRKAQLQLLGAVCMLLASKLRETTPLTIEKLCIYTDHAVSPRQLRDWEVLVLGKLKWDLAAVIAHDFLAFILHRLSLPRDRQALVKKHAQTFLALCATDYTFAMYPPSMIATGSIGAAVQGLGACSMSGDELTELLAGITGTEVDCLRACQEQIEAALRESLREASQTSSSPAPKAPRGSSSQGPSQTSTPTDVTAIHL", "assay": "CDK panel kinase inhibition", "format": "biochemical", "settings": "read-out: Percentage of inhibition (%)", "excerpt": "as §1"}, "CYP3A4-MDZ": {"biological_target": "CYP3A4-MDZ (Homo sapiens, UniProt P08684)", "assay": "Cytochrome P450 inhibition assay", "format": "in vitro ADME", "settings": "50 uM"}, "MOLM-14 xenograft model": {"test_system": "MOLM-14 xenograft model", "assay": "MOLM-14 xenograft efficacy study, single agent", "format": "in vivo, NOD SCID mice", "settings": "50 mg/kg twice a day", "experimental": "These favorable properties led us to evaluate the efficacy of MK256 in vivo using the MOLM-14 cell line to examine if the compound could inhibit tumor growth in the MOLM-14 xenograft model. Mice were given 100 ul of 50 mg/kg of MK256 or 100 ul of saline twice a day for 21 days following a 5-day on/ 2-day off schedule. Tumors from two groups of mice were all initially ~ 300 mm^3. Tumors of the mice in the control group continued to grow quickly during the 21-day period, with the average tumor volume reaching 1600 mm^3 on day 22, when we measured tumors for the last time. In the contrast, tumors of the mice in the treatment group shrank to 200 mm^3 on average by day 22 (Figure 9A). Average tumor weight was 0.16 g for the treatment group and 1.85 g for the control group (Figure 9B). […] Tumors collected on day 22 were then processed and analyzed with western blot.\nFemale NOD SCID mice were purchased from Charles River Laboratories (Wilmington, USA) or bred at the animal facilities of the University of California San Francisco. All animal experiments were carried out under protocols approved by the Institutional Animal Care and Use Committee of the University of California San Francisco. For MOLM-14 model, 200 ul of 1 × 10^6 cells combined with matrigel (v/v, 1:1) were injected subcutaneously in the right flank of NODSCID mice. Tumors were allowed to grow for two weeks to reach a tumor volume about 200 mm^3 before mice were randomly grouped. The animals were treated for three weeks on a 5 days on/2 days off schedule by oral gavage with MK256 (dissolved in saline) alone or in combination with Venetoclax (dissolved in 5% DMSO + 50% PEG 300 + 5% Tween 80 + ddH2O). In the single treatment study, MK256 was administered by mice twice a day at 50 mg/kg. In the combination study, MK256 (10 or 50 mg/kg) and was coadministered with Venetoclax (25 mg/kg) once a day. Tumor volume and body weight were monitored once every 3 days. Tumor volume was calculated as L × W^2/2, where L and W were the length and width of the tumor, respectively."}},
  "data": [
    {"smiles": "Nc1nccc2c(Br)cc3cc(C(=O)O)ccc3c12", "note": "[MK256]", "values": [
      {"measurement": "cytochrome P450 inhibition", "setting": "CYP2D6", "value": "no inhibition"},
      {"measurement": "Clint (μL·min^−1·mg protein^−1)", "setting": "[1]; Human hepatocytes", "value": 16, "unit": "μL·min^−1·mg protein^−1"},
      {"measurement": "half-life at 1 µM", "setting": "[1]; human, cryopreserved human hepatocytes (LiverPool 20-donor), read-out: T½", "value": 1.48, "unit": "h"},
      {"measurement": "inhibition at 0.2 µM", "setting": "CDK14 (PFTK1)/cyclin Y; 200 nM", "value": 23, "unit": "%"},
      {"measurement": "inhibition at 10 µM", "setting": "CDK14 (PFTK1)/cyclin Y; 10 μM", "value": 97, "unit": "%"},
      {"measurement": "inhibition at 0.2 µM", "setting": "CDK18/cyclin Y; 200 nM", "value": 37, "unit": "%"},
      {"measurement": "inhibition at 10 µM", "setting": "CDK18/cyclin Y; 10 μM", "value": 98, "unit": "%"},
      {"measurement": "inhibition at 0.2 µM", "setting": "CDK9/cyclin T1; 200 nM", "value": 82, "unit": "%"},
      {"measurement": "inhibition at 10 µM", "setting": "CDK9/cyclin T1; 10 μM", "value": 98, "unit": "%"},
      {"measurement": "inhibition at 0.2 µM", "setting": "CDK6/cyclin D1; 200 nM", "value": -12, "unit": "%"},
      {"measurement": "inhibition at 10 µM", "setting": "CDK6/cyclin D1; 10 μM", "value": 23, "unit": "%"},
      {"measurement": "inhibition at 0.2 µM", "setting": "CDK1/cyclin B; 200 nM", "value": 34, "unit": "%"},
      {"measurement": "inhibition at 10 µM", "setting": "CDK1/cyclin B; 10 μM", "value": 97, "unit": "%"},
      {"measurement": "inhibition at 0.2 µM", "setting": "CDK2/cyclin E1; 200 nM", "value": 5, "unit": "%"},
      {"measurement": "inhibition at 10 µM", "setting": "CDK2/cyclin E1; 10 μM", "value": 70, "unit": "%"},
      {"measurement": "inhibition at 0.2 µM", "setting": "CDK2/cyclin A; 200 nM", "value": 7, "unit": "%"},
      {"measurement": "inhibition at 10 µM", "setting": "CDK2/cyclin A; 10 μM", "value": 85, "unit": "%"},
      {"measurement": "inhibition at 0.2 µM", "setting": "CDK7/cyclin H/MNAT1; 200 nM", "value": 9, "unit": "%"},
      {"measurement": "inhibition at 10 µM", "setting": "CDK7/cyclin H/MNAT1; 10 μM", "value": 54, "unit": "%"},
      {"measurement": "inhibition at 0.2 µM", "setting": "CDK5/p35; 200 nM", "value": 7, "unit": "%"},
      {"measurement": "inhibition at 10 µM", "setting": "CDK5/p35; 10 μM", "value": 90, "unit": "%"},
      {"measurement": "inhibition at 0.2 µM", "setting": "CDK4/cyclin D3; 200 nM", "value": -3, "unit": "%"},
      {"measurement": "inhibition at 10 µM", "setting": "CDK4/cyclin D3; 10 μM", "value": 23, "unit": "%"},
      {"measurement": "cytochrome P450 inhibition", "setting": "CYP3A4-MDZ", "value": "no inhibition"},
      {"measurement": "expression level of p-STAT1(S727) and p-STAT5(S726) in tumors collected on day 22", "setting": "MOLM-14 xenograft model", "value": "down regulate"},
      {"measurement": "average tumor volume on day 22", "setting": "MOLM-14 xenograft model; 5-day on/2-day off, 21 days, start ~300 mm^3, control 1600 mm^3", "value": 200, "unit": "mm^3"},
      {"measurement": "average tumor weight", "setting": "MOLM-14 xenograft model; day 22, control 1.85 g", "value": 0.16, "unit": "g"},
      {"measurement": "average body weight at end of study", "setting": "MOLM-14 xenograft model; from 23.5 g at start, control 23.4 g to 25.7 g", "value": 23.9, "unit": "g"}
    ]}
  ]
}
